Experimental data published in the NIST ThermoML archive (doi:10.1016/j.fluid.2010.10.028).
± gives the expanded uncertainty stated by the source.

Test: xn = mol fraction of the nth substance listed
Settings: Liquid, Vibrating tube method

CC(C)=O [acetone] + CCCCCCC
Settings | mass density [kg/m3]
357.55 K, 24990 kPa, x1 = 0.4 | 726.84 ± 1.3
357.55 K, 24990 kPa, x1 = 0.8992 | 726.84 ± 1.3
357.55 K, 29870 kPa, x1 = 0.492 | 686.24 ± 1.3
357.55 K, 29870 kPa, x1 = 0.611 | 695.58 ± 1.3
357.55 K, 29970 kPa, x1 = 0.4 | 732.49 ± 1.3
357.55 K, 29970 kPa, x1 = 0.8992 | 732.49 ± 1.3
357.55 K, 34840 kPa, x1 = 0.492 | 691.34 ± 1.3
357.55 K, 34860 kPa, x1 = 0.611 | 700.78 ± 1.3
357.55 K, 34960 kPa, x1 = 0.4 | 737.79 ± 1.3
357.55 K, 34960 kPa, x1 = 0.8992 | 737.79 ± 1.3
357.55 K, 39860 kPa, x1 = 0.492 | 696.15 ± 1.3
357.55 K, 39860 kPa, x1 = 0.611 | 705.69 ± 1.3
357.55 K, 39960 kPa, x1 = 0.4 | 742.81 ± 1.3
357.55 K, 39960 kPa, x1 = 0.8992 | 742.81 ± 1.3
357.55 K, 44840 kPa, x1 = 0.492 | 700.71 ± 1.4
357.55 K, 44850 kPa, x1 = 0.611 | 710.3 ± 1.3
357.55 K, 44950 kPa, x1 = 0.4 | 747.57 ± 1.3
357.55 K, 44950 kPa, x1 = 0.8992 | 747.57 ± 1.3
357.55 K, 49840 kPa, x1 = 0.611 | 714.7 ± 1.4
357.55 K, 49940 kPa, x1 = 0.4 | 752.09 ± 1.4
357.55 K, 49940 kPa, x1 = 0.8992 | 752.09 ± 1.3
357.55 K, 54850 kPa, x1 = 0.492 | 709.15 ± 1.4
357.55 K, 54940 kPa, x1 = 0.4 | 756.43 ± 1.4
357.55 K, 54940 kPa, x1 = 0.611 | 718.97 ± 1.4
357.55 K, 54940 kPa, x1 = 0.8992 | 756.43 ± 1.3
357.55 K, 59860 kPa, x1 = 0.492 | 713.06 ± 1.4
357.55 K, 59930 kPa, x1 = 0.4 | 760.56 ± 1.4
357.55 K, 59930 kPa, x1 = 0.611 | 722.96 ± 1.4
357.55 K, 59930 kPa, x1 = 0.8992 | 760.56 ± 1.4
357.55 K, 64830 kPa, x1 = 0.492 | 716.77 ± 1.4
357.55 K, 64890 kPa, x1 = 0.4 | 764.53 ± 1.4
357.55 K, 64890 kPa, x1 = 0.8992 | 764.53 ± 1.4
357.55 K, 69890 kPa, x1 = 0.4 | 768.36 ± 1.4
357.55 K, 69890 kPa, x1 = 0.8992 | 768.36 ± 1.4
357.55 K, 69910 kPa, x1 = 0.611 | 730.41 ± 1.4
357.55 K, 69930 kPa, x1 = 0.492 | 720.43 ± 1.5
357.55 K, 74860 kPa, x1 = 0.4 | 772.01 ± 1.4
357.55 K, 74860 kPa, x1 = 0.8992 | 772.01 ± 1.4
357.55 K, 74890 kPa, x1 = 0.611 | 733.9 ± 1.5
357.55 K, 74910 kPa, x1 = 0.492 | 723.89 ± 1.5
357.55 K, 79780 kPa, x1 = 0.7024 | 747.09 ± 1.5
357.55 K, 79880 kPa, x1 = 0.611 | 737.26 ± 1.5
357.55 K, 84830 kPa, x1 = 0.4 | 778.99 ± 1.5
357.55 K, 84830 kPa, x1 = 0.8992 | 778.99 ± 1.4
357.55 K, 89740 kPa, x1 = 0.7024 | 753.59 ± 1.5
357.55 K, 89810 kPa, x1 = 0.4 | 782.3 ± 1.5
357.55 K, 89810 kPa, x1 = 0.8992 | 782.3 ± 1.4
357.55 K, 89830 kPa, x1 = 0.611 | 743.64 ± 1.5
357.55 K, 94820 kPa, x1 = 0.611 | 746.67 ± 1.5
357.55 K, 94860 kPa, x1 = 0.492 | 736.47 ± 1.6
357.55 K, 99800 kPa, x1 = 0.611 | 749.61 ± 1.6
357.55 K, 99820 kPa, x1 = 0.7024 | 759.74 ± 1.5
357.55 K, 104700 kPa, x1 = 0.4 | 791.65 ± 1.5
357.55 K, 104700 kPa, x1 = 0.8992 | 791.65 ± 1.5
357.55 K, 104820 kPa, x1 = 0.7024 | 762.65 ± 1.6
357.55 K, 109810 kPa, x1 = 0.7024 | 765.49 ± 1.6
357.55 K, 114810 kPa, x1 = 0.7024 | 768.22 ± 1.6
357.55 K, 119810 kPa, x1 = 0.7024 | 770.9 ± 1.6
357.55 K, 124810 kPa, x1 = 0.7024 | 773.52 ± 1.6
357.55 K, 129800 kPa, x1 = 0.7024 | 776.06 ± 1.7
357.56 K, 1060 kPa, x1 = 0.801 | 677.14 ± 1.2
357.56 K, 4870 kPa, x1 = 0.801 | 683.82 ± 1.2
357.56 K, 9840 kPa, x1 = 0.801 | 691.71 ± 1.2
357.56 K, 14860 kPa, x1 = 0.801 | 698.89 ± 1.2
357.56 K, 34850 kPa, x1 = 0.801 | 722.54 ± 1.3
357.56 K, 49850 kPa, x1 = 0.492 | 705.01 ± 1.4
357.56 K, 59820 kPa, x1 = 0.801 | 745.17 ± 1.4
357.56 K, 64910 kPa, x1 = 0.611 | 726.75 ± 1.4
357.56 K, 64920 kPa, x1 = 0.801 | 749.17 ± 1.4
357.56 K, 69910 kPa, x1 = 0.801 | 752.93 ± 1.4
357.56 K, 74880 kPa, x1 = 0.801 | 756.52 ± 1.4
357.56 K, 79850 kPa, x1 = 0.4 | 775.55 ± 1.4
357.56 K, 79850 kPa, x1 = 0.8992 | 775.55 ± 1.4
357.56 K, 79900 kPa, x1 = 0.492 | 727.2 ± 1.5
357.56 K, 84860 kPa, x1 = 0.611 | 740.5 ± 1.5
357.56 K, 84870 kPa, x1 = 0.801 | 763.37 ± 1.5
357.56 K, 84890 kPa, x1 = 0.492 | 730.4 ± 1.5
357.56 K, 89840 kPa, x1 = 0.801 | 766.6 ± 1.5
357.56 K, 89880 kPa, x1 = 0.492 | 733.49 ± 1.6
357.56 K, 94780 kPa, x1 = 0.4 | 785.51 ± 1.5
357.56 K, 94780 kPa, x1 = 0.8992 | 785.51 ± 1.5
357.56 K, 94830 kPa, x1 = 0.801 | 769.76 ± 1.5
357.56 K, 99750 kPa, x1 = 0.4 | 788.61 ± 1.5
357.56 K, 99750 kPa, x1 = 0.8992 | 788.61 ± 1.5
357.56 K, 99810 kPa, x1 = 0.801 | 772.8 ± 1.5
357.56 K, 99830 kPa, x1 = 0.492 | 739.34 ± 1.6
357.56 K, 104780 kPa, x1 = 0.611 | 752.46 ± 1.6
357.56 K, 104780 kPa, x1 = 0.801 | 775.76 ± 1.5
357.56 K, 104810 kPa, x1 = 0.492 | 742.14 ± 1.6
357.56 K, 109680 kPa, x1 = 0.4 | 794.58 ± 1.5
357.56 K, 109680 kPa, x1 = 0.8992 | 794.58 ± 1.5
